Data as given in the SangsterLogP compilation.

Structure (SMILES) | logP
CN(C)S(=O)(=O)N(SC(F)(Cl)Cl)c1ccccc1 | 3.7
CCOP(=O)(SC(C)CC)N1CCSC1=O (centres undefined) | 1.68
O=C(NC(=O)c1c(F)cccc1F)Nc1ccc(OC(F)(F)C(F)OC(F)(F)F)c(Cl)c1 (centres undefined) | 5.27
O=C(NC(=O)c1c(F)cccc1F)Nc1ccc(Cl)c(Oc2ncc(C(F)(F)F)cc2Cl)c1 | 5.1
Fc1cccc(F)c1-c1nnc(-c2ccccc2Cl)nn1 | 3.3
COP(=O)(OC)SCn1c(=O)oc2cc(Cl)cnc21 | 1.05
Clc1ccc(CS/C(Cn2cncn2)=N\c2ccc(Cl)cc2Cl)cc1 | 4.94
CCc1cccc(C)c1N(COC(C)C)C(=O)CCl | 3.5
Cc1cccc(C)c1N(C(=O)CCl)C1CCOC1=O (centres undefined) | 1.39
